Data reported in ChEMBL document CHEMBL1201862, “PubChem BioAssay data set” (2004).
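Step 1: Grow cells in 96-well plates. Step 2: Expose to compound for 48 hours at 5 concentrations. Step 3: Interpolate endpoints linearly; if unreached, use highest concentration. At the GI50, growth is halved.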 Active and inactive are the calls of the source. Rule as the data show it: active = GI50 up to about 1.1 µM and inactive = higher.

How the values were obtained:
Assay in all cases: inhibition of tumour cell growth, NCI panel, 48 h
786-0 = test system: 786-0
NCI-H460 = test system: NCI-H460
NCI-H522 = test system: NCI-H522
IGROV-1 = test system: IGROV-1
K562 = test system: K562
Malme-3M = test system: Malme-3M
SW-620 = test system: SW-620
OVCAR-3 = test system: OVCAR-3
Hs-578T = test system: Hs-578T
OVCAR-8 = test system: OVCAR-8
MCF7 = test system: MCF7
CAKI-1 = test system: CAKI-1
SK-MEL-2 = test system: SK-MEL-2
RXF 393 = test system: RXF 393
UACC-62 = test system: UACC-62
HL-60 = test system: HL-60
SK-MEL-5 = test system: SK-MEL-5
MDA-MB-435 = test system: MDA-MB-435
HCT-15 = test system: HCT-15
HOP-62 = test system: HOP-62
OVCAR-5 = test system: OVCAR-5
NCI/ADR-RES = test system: NCI/ADR-RES
SF-539 = test system: SF-539
CCRF-CEM = test system: CCRF-CEM
SNB-75 = test system: SNB-75
MDA-MB-231 = test system: MDA-MB-231
EKVX = test system: EKVX
SK-OV-3 = test system: SK-OV-3
SNB-19 = test system: SNB-19
DU-145 = test system: DU-145
MDA-N = test system: MDA-N
RPMI-8226 = test system: RPMI-8226
PC-3 = test system: PC-3
LOX IMVI = test system: LOX IMVI
M14 = test system: M14
OVCAR-4 = test system: OVCAR-4
A549 = test system: A549
KM12 = test system: KM12
NCI-H226 = test system: NCI-H226
SK-MEL-28 = test system: SK-MEL-28
U-251 = test system: U-251
UO-31 = test system: UO-31
BT-549 = test system: BT-549
SR = test system: SR
HCC 2998 = test system: HCC 2998
T47D = test system: T47D
SN12C = test system: SN12C
A498 = test system: A498
SF-268 = test system: SF-268
HCT-116 = test system: HCT-116
SF-295 = test system: SF-295
MOLT-4 = test system: MOLT-4
TK-10 = test system: TK-10
UACC-257 = test system: UACC-257
HT-29 = test system: HT-29
NCI-H23 = test system: NCI-H23
HOP-92 = test system: HOP-92
COLO 205 = test system: COLO 205

CC[C@@]1(O)C[C@H](OC2CC(N(C)C)C(O)C(C)O2)c2c(O)c3c(c(O)c2[C@H]1OC1CC(N(C)C)C(O)C(C)O1)C(=O)c1cccc(O)c1C3=O (stereo partly drawn)
GI50 (786-0): 19.6 nM (active) | GI50 (NCI-H460): 18 nM (active) | GI50 (NCI-H522): 14.4 nM (active) | GI50 (IGROV-1): 70.6 nM (active) | GI50 (K562): 26.7 nM (active) | GI50 (Malme-3M): 42.4 nM (active) | GI50 (SW-620): 37.8 nM (active) | GI50 (OVCAR-3): 51 nM (active) | GI50 (Hs-578T): 57.7 nM (active) | GI50 (OVCAR-8): 27.4 nM (active) | GI50 (MCF7): 32.1 nM (active) | GI50 (CAKI-1): 19.5 nM (active) | GI50 (SK-MEL-2): 22.7 nM (active) | GI50 (RXF 393): 25.5 nM (active) | GI50 (UACC-62): 25.3 nM (active) | GI50 (HL-60): 86.9 nM (active) | GI50 (SK-MEL-5): 32.3 nM (active) | GI50 (MDA-MB-435): 34.1 nM (active) | GI50 (HCT-15): 58.5 nM | GI50 (HOP-62): 40.4 nM (active) | GI50 (OVCAR-5): 83.8 nM (active) | GI50 (NCI/ADR-RES): 177 nM (active) | GI50 (SF-539): 53.1 nM (active) | GI50 (CCRF-CEM): 68.7 nM (active) | GI50 (SNB-75): 19.5 nM (active) | GI50 (MDA-MB-231): 34.1 nM (active) | GI50 (EKVX): 98.4 nM (active) | GI50 (SK-OV-3): 39.7 nM (active) | GI50 (SNB-19): 40 nM (active) | GI50 (DU-145): 182 nM (active) | GI50 (MDA-N): 36.3 nM (active) | GI50 (RPMI-8226): 40.9 nM (active) | GI50 (PC-3): 36.1 nM (active) | GI50 (LOX IMVI): 20.8 nM (active) | GI50 (M14): 35.7 nM (active) | GI50 (OVCAR-4): 40.9 nM (active) | GI50 (A549): 30.6 nM (active) | GI50 (KM12): 28 nM (active) | GI50 (NCI-H226): 21.9 nM (active) | GI50 (SK-MEL-28): 37.3 nM (active) | GI50 (U-251): 26.4 nM (active) | GI50 (UO-31): 27.5 nM (active) | GI50 (BT-549): 41 nM (active) | GI50 (SR): 38.5 nM (active) | GI50 (HCC 2998): 28.4 nM (active) | GI50 (T47D): 60 nM (active) | GI50 (SN12C): 54 nM (active) | GI50 (A498): 12 nM (active) | GI50 (SF-268): 60.3 nM (active) | GI50 (HCT-116): 24.7 nM (active) | GI50 (SF-295): 40 nM (active) | GI50 (MOLT-4): 81.7 nM (active) | GI50 (TK-10): 47.3 nM (active) | GI50 (UACC-257): 146 nM (active) | GI50 (HT-29): 22.4 nM (active) | GI50 (NCI-H23): 57 nM (active) | GI50 (HOP-92): 71 nM (active) | GI50 (COLO 205): 32.1 nM (active)
